Laboratory results: PubChem BioAssay (NCI)
Values joined by “and” are separate entries in the source; they are usually repeats but may differ in a detail not shown here. Equal entries are not always repeated.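 Grown in 96-well plates, cells were treated for 48 hours with each compound at five concentrations. Insufficient inhibition: endpoint recorded as highest concentration tested. At the GI50, growth is halved. At the TGI there is no net growth.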

Assays:
Assay in all cases: growth of human tumour cells (NCI), 48 h
[1] = system: SK-OV-3 ovarian
[2] = system: CCRF-CEM leukemia
[3] = system: M14 melanoma
[4] = system: BT-549 breast
[5] = system: MCF7 breast
[6] = system: SF-539 CNS
[7] = system: HT29 colon
[8] = system: SK-MEL-28 melanoma
[9] = system: OVCAR-8 ovarian

Row | Compound | GI50 [1] [µM] | TGI [1] | GI50 [2] [µM] | TGI [2] | GI50 [3] [µM] | TGI [3] | GI50 [4] [µM] | TGI [4] | GI50 [5] [µM] | TGI [5] | GI50 [6] [µM] | TGI [6] [µM] | GI50 [7] [µM] | TGI [7] [µM] | GI50 [8] [µM] | TGI [8] [µM] | GI50 [9] [µM] | TGI [9]
1 | CC/C=C\C[C@@H](O)C/C=C1/C(=O)C=C[C@H]1C/C=C\CCCC(=O)OC | 6.49 | 19 µM | 0.461 | 4.36 µM | 2.39 | 8.38 µM | 2.94 | 8.81 µM | 2.23 | 13.1 µM | 3.22 | 11.9 | 2.36 | 5.74 | 2.1 | 5.34 | 3.26 | 10.4 µM
2 | COc1cc(C(=O)CBr)c(OC)cc1C |  | > 100 µM |  | > 100 µM |  | > 100 µM |  | > 100 µM |  | > 100 µM |  | > 100 |  | > 100 |  | > 100 |  | > 100 µM
3 | O=C1C(Cl)=C(NCCN2CCOCC2)C(=O)c2ncccc21 | 2.26 | 3.36 µM and 7.23 µM | 2.34 | 2.68 µM and 5.29 µM |  | 3.17 µM and 3.25 µM |  | 3.21 µM and 3.03 µM | 1.28 | 3.4 µM and 3.31 µM |  | 3.33 |  | 6.74 |  | 3.29 |  | 3.79 µM and 3.29 µM
4 | Cc1ccc(C(=O)NC(C)C)cc1-c1ccc(C(=O)NCC2CC2)cc1 | > 25 | > 25 µM | > 25 | > 25 µM | > 25 | > 25 µM | > 25 | > 25 µM | > 25 | > 25 µM | > 25 | > 25 | > 25 | > 25 | > 25 | > 25 | > 25 | > 25 µM
5 | C[N+]1=C(/C=C/c2ccc(O)c3ncccc23)C(C)(C)c2ccccc21 | 2.76 | 12 µM | 3.1 | 26 µM | 2.53 | 7.7 µM | 2.64 | 10.3 µM | 2.71 | 10.7 µM | 2.55 | 10.3 | 3.19 | 12.6 | 4.35 | 16.4 | 3.55 | > 100 µM
6 | CCCCCCCC[C@@H](O)CC(=O)N[C@@H](CC(N)=O)C(=O)N[C@@H](CCC(N)=O)C(=O)N[C@@H](CC(=O)c1cc(C)cc(O)c1C(=O)c1c(O)cccc1O)CC(C)C | 12.6 | > 100 µM | 0.398 | > 100 µM | 0.735 | 18.4 µM | 0.296 | 2.25 µM | 0.539 | > 100 µM | 0.253 | 0.783 | 0.404 | 5.49 | 1.59 | 25.5 | 3.23 | 46.6 µM
7 | NC(=O)NS(=O)(=O)c1ccc(N2N=C(C(F)(F)F)CC2c2cc(C(F)(F)F)cc(C(F)(F)F)c2)cc1 (stereo not given) | 7.82 | 21.3 µM | 2.94 | 19.9 µM | 4.96 | 21.1 µM | 4.28 | 16.5 µM | 1.85 | 4.86 µM | 11.9 | 24.7 | 3.1 | 13 | 4.39 | 16.7 | 4.78 | 20 µM
8 | COc1ccc(-c2nc(-c3nc4ccc(Cl)cc4[nH]3)c3ccccn23)cc1 | 2.24 | 4.99 µM | 27.3 | > 100 µM | 4.24 | 18.4 µM | 2.74 | 6.63 µM | 3.15 | 16 µM | 1.76 | 3.61 | 3.66 | 14.2 | 2.14 | 5.34 | 2.4 | 6.69 µM
9 | O=C(CCc1nnc2sc(-c3ccc(Cl)cc3Cl)nn12)c1nc2ccccc2[nH]1 | 1.77 | 3.46 µM | 0.265 | 0.974 µM | 0.282 | 1.03 µM | 2.14 | 4.99 µM | 0.466 | 2.45 µM | 1.98 | 4.63 | 0.374 | 2.01 | 0.452 | 1.68 | 1.48 | > 23.4 µM
10 | CC/C=C\C[C@H](F)C/C=C1/C(=O)C=C[C@@H]1C/C=C\CCCC(=O)O | 12.6 | > 32.5 µM | 1.05 | 11.1 µM | 6.53 | 20 µM | 6.07 | 12.5 µM | 1.32 | > 32.5 µM | 7.21 | 17 | 5.4 | 15 | 4.98 | 11.4 | 1.21 | 5.71 µM
11 | CC1CN1C(=O)NCCCCCCNC(=O)N1CC1C (stereo not given) |  | > 100 µM |  | > 93 µM |  | > 100 µM |  | > 100 µM |  | > 100 µM |  | 98.2 |  | > 100 |  | > 100 |  | > 100 µM
12 | Cc1ccc(-c2nc3nc(-c4ccccc4)nc(N4CCCNCC4)c3o2)cc1 | 1.81 | 3.27 µM | 1.89 | 4.23 µM | 1.96 | 3.69 µM | 1.63 | 3.19 µM | 1.48 | 3.5 µM | 1.82 | 3.31 | 1.6 | 3.08 | 1.84 | 3.28 | 2.06 | 4.1 µM
13 | CC1(C)OC2=C(CC1Br)C(=O)C(=O)c1ccccc12 (stereo not given) | 1.96 | 3.47 µM | 3.56 | > 100 µM | 1.9 | 3.64 µM | 1.85 | 3.34 µM | 1.68 | 3.74 µM | 1.82 | 3.37 | 2.4 | 5.25 | 1.82 | 3.24 | 2.02 | 3.89 µM
14 | CS(=O)(=O)c1ccc(-n2nc(C(F)(F)F)cc2OC2CCCC2)cc1 | 51.8 | > 100 µM | 38.3 | > 100 µM | 32.2 | 93.5 µM | 28.5 | 73 µM | 25.4 | 80.2 µM | 39.8 | > 100 | 24.7 | 78.4 | > 100 | > 100 | 43.8 | > 100 µM
15 | COc1cc[nH]c1/C=C1\C(=O)Nc2ccc(F)c(C#CC3(O)CCNCC3)c21 | 0.0172 | 2.61 µM | 0.0779 | 0.836 µM | 0.0413 | 0.684 µM | 0.318 | 0.696 µM | 0.111 | 1.9 µM | 0.106 | 0.426 | 0.0916 | 1.1 | 0.14 | 1.39 | 0.172 | 1.65 µM
16 | CCCC(=O)OCC1OC(n2cnc3c(=S)nc[nH]c32)C(OC(=O)CCC)C1OC(=O)CCC (stereo not given) | 0.804 | 69.8 µM | 1.79 | 17.4 µM | 2.23 | > 100 µM | 14.3 | > 100 µM | 1.95 | > 100 µM | 3.53 | > 100 | 3.63 | > 100 | 77.5 | > 100 | 4.2 | > 100 µM
17 | O=C(O)c1nn(-c2ccccc2-c2n[nH]c(=O)[nH]c2=O)c(=O)[nH]c1=O |  | > 100 µM |  | > 100 µM |  | > 100 µM |  | > 100 µM |  | > 100 µM |  | > 100 |  | > 100 |  | > 100 |  | > 100 µM
18 | O=C(O)CCNC1CCCCC1 | > 100 | > 100 µM | > 100 | > 100 µM | > 100 | > 100 µM | > 100 | > 100 µM | > 100 | > 100 µM | > 100 | > 100 | > 100 | > 100 | > 100 | > 100 | > 100 | > 100 µM
19 | Cc1ccc2c(c1)Sc1c(ccc3ccccc13)N2 | > 100 | > 100 µM | 12.4 | > 100 µM | > 100 | > 100 µM | 28.5 | > 100 µM | > 100 | > 100 µM | 20.7 | > 100 | 51.2 | > 100 | > 100 | > 100 | 35 | > 100 µM
20 | COC(=O)Nc1nc2ccc(Oc3ccc(NC(=O)Nc4cc(C(F)(F)F)ccc4F)cc3)cc2s1 | > 25 | > 25 µM | > 23.7 | > 25 µM | 2.83 | > 25 µM | > 25 | > 25 µM | > 19.6 | > 25 µM | > 25 | > 25 | 12.7 | > 25 | 13.9 | > 25 | 8.67 | > 25 µM
21 | COc1ccc(-c2onc(N)c2-c2cc(OC)c3c(c2)OCO3)cc1 | 3.79 | 22.6 µM | 1.81 | > 88.6 µM | 1.49 | 7.28 µM | 2.64 | > 100 µM | 0.932 | > 100 µM | 2.74 | 11.8 | 1.65 | 11.9 | 3.84 | > 100 | 4.22 | > 100 µM
22 | O=C1CCC(N2C(=O)c3ccccc3C2=O)C(=O)N1CO (stereo not given) | > 100 | > 100 µM | 30.5 | > 100 µM | 54.7 | > 100 µM | 52.6 | > 100 µM | 26.6 | > 100 µM | 30.8 | 93.6 | 42.1 | > 100 | > 100 | > 100 | > 100 | > 100 µM
23 | O=C1Nc2ccccc2C1(c1ccc(O)cc1)c1ccc(O)cc1 | 22.8 | 54.2 µM | 32.7 | 99.8 µM | 20.1 | 49.3 µM | 0.0625 | 0.541 µM | 0.378 | 27.8 µM | 18.5 | 40.2 | 29.3 | > 90 | 26.9 | 65.7 | 0.273 | 77.5 µM
24 | COc1cc2ncn(-c3cc(OCc4cccs4)c(C(N)=O)s3)c2cc1OC | 1.81 | > 20 µM | 0.806 | > 25 µM | 1.82 | > 17.3 µM | 4.67 | > 25 µM | 0.752 | > 12.5 µM | 1.23 | > 16.8 | 0.875 | > 25 | 7.62 | > 25 | 1.52 | > 17 µM
25 | O=C(O)/C=C(\c1nc2ccc([N+](=O)[O-])cc2[nH]1)c1cc(Cl)ccc1O | 2.44 | 11.8 µM | 2.51 | 12.7 µM | 2.78 | 12 µM | 2.3 | 7.25 µM | 2.36 | 16.6 µM | 3.1 | 17.8 | 3.51 | 14.4 | 2.66 | 14.4 | 3.28 | > 100 µM
26 | C#CCNC(=O)c1cccc2c1cc(C)n2-c1nc2c(c(NCc3ccccc3)n1)CCCC2 | 0.056 | 0.232 µM | 0.235 | 0.945 µM | 0.0195 | 0.0439 µM | 0.0265 | 0.0643 µM | 0.0151 | 0.142 µM | 0.0245 | 0.07 | 0.03 | 0.0924 | 0.035 | 0.123 | 0.0312 | 0.363 µM
27 | Nc1nc(N(Cc2ccccc2)c2ccccc2)c2cn[nH]c2n1 | 3.73 | > 100 µM | 4.32 | > 100 µM | 5.22 | > 100 µM | 3.95 | > 100 µM | 4.34 | > 100 µM | 2.95 | > 100 | 3.54 | > 100 | 16.9 | > 100 | 6.01 | > 100 µM
28 | O=C1c2cccc([N+](=O)[O-])c2C(=O)N1c1ncn[nH]1 |  | > 100 µM |  | > 100 µM |  | > 100 µM |  | 90 µM |  | > 100 µM |  | 36.8 |  | > 100 |  | > 100 |  | > 100 µM
29 | CCCn1c(=S)sc2c1nc(C)n1c(Nc3ccccc3)nnc21 | 16.8 | 89.1 µM | 4.32 | > 100 µM | 4.72 | 44 µM | 2.99 | 12 µM | 6.31 | 47.3 µM | 7.45 | 30.3 | 13.1 | 38.3 | 5.71 | 38.6 | 4.92 | > 100 µM
